Experimental data reported in ChEMBL document CHEMBL4184110 (Bioorg Med Chem Lett, 2018).

How the values were obtained:
[1] = molecular target: T1, Thyroid hormone receptor beta (Homo sapiens, UniProt P10828); experiment: Antagonist activity at CMV-fused TRbeta-LBD-GAL4-DBD (unknown origin) expressed in HEK293T cells assessed as inhibition of T3-induced receptor transactivation after 16 hrs by bright-Glo luciferase reporter gene assay; format: cell-based
T1 sequence (P10828 whole entry): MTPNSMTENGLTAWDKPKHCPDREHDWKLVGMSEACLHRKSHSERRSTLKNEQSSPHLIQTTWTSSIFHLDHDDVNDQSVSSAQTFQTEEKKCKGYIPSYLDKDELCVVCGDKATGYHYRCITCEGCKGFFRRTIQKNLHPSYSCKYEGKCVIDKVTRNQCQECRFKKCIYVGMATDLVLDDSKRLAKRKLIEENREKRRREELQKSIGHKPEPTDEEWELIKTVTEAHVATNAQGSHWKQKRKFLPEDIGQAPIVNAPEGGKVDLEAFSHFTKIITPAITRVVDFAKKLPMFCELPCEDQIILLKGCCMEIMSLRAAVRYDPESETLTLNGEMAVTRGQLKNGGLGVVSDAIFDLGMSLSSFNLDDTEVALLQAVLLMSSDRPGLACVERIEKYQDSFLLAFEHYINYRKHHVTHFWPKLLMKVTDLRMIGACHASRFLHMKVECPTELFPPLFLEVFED

Vitamin D3 receptor = molecular target: T2, Vitamin D3 receptor (Homo sapiens, UniProt P11473); experiment: Antagonist activity at VDR-LBD (unknown origin) assessed as inhibition of LG190178-induced recruitment of alexa fluor 647-labeled SRC2-3 after 30 mins by fluorescence polarization assay
T2 sequence (P11473 whole entry): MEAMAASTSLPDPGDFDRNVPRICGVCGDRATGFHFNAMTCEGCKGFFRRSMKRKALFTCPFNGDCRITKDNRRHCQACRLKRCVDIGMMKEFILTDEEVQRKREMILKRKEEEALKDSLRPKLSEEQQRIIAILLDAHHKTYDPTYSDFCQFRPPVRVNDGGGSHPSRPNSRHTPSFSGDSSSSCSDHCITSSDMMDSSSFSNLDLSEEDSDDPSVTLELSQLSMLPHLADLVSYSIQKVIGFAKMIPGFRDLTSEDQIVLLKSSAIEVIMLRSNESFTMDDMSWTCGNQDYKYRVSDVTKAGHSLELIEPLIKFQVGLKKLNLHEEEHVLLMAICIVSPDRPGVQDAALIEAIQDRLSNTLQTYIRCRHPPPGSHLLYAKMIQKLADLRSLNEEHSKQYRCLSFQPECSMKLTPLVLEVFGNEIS

[2] = molecular target: T3, Peroxisome proliferator-activated receptor delta (Homo sapiens, UniProt Q03181); experiment: Transactivation of CMV-fused PPARdelta-LBD-GAL4-DBD (unknown origin) expressed in HEK293T cells by luciferase reporter gene assay; format: cell-based
T3 sequence (Q03181 whole entry): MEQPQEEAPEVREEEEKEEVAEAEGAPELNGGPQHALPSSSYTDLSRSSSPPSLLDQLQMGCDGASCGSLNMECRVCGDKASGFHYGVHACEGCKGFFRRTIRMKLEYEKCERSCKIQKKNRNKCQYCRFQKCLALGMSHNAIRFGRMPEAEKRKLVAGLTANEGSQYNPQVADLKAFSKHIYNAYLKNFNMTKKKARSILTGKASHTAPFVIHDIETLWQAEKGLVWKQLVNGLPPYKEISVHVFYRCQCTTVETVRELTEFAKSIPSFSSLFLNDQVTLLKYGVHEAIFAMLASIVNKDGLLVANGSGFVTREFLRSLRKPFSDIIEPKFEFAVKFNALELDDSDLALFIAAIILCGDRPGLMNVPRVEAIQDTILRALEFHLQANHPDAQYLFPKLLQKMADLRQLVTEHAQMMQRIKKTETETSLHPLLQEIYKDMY

[3] = molecular target: T3, Peroxisome proliferator-activated receptor delta; experiment: Antagonist activity at CMV-fused PPARdelta-LBD-GAL4-DBD (unknown origin) expressed in HEK293T cells assessed as inhibition of GW0742-induced receptor transactivation after 16 hrs by bright-Glo luciferase reporter gene assay; format: cell-based
Estrogen receptor = molecular target: T4, Estrogen receptor (Homo sapiens, UniProt P03372); experiment: Antagonist activity at CMV-fused ERalpha-LBD-GAL4-DBD (unknown origin) expressed in HEK293T cells assessed as inhibition of estradiol-induced receptor transactivation after 16 hrs by bright-Glo luciferase reporter gene assay; format: cell-based
T4 sequence (P03372 whole entry): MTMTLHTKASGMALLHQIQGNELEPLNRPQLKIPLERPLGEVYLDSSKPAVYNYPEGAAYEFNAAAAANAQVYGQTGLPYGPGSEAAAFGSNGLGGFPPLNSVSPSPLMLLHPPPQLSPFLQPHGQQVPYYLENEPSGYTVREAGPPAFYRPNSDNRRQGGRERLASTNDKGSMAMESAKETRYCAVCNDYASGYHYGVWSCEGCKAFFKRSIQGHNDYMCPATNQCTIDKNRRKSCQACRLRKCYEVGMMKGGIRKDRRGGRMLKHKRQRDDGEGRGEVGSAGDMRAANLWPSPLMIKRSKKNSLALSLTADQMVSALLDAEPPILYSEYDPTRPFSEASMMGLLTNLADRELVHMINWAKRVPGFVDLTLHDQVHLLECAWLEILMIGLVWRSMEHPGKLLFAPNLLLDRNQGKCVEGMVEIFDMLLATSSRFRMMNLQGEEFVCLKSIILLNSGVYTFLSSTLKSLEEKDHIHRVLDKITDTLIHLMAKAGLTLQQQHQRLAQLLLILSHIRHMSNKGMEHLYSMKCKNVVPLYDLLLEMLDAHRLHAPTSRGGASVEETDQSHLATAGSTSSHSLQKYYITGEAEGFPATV

[4] = molecular target: T5, Retinoic acid receptor RXR-alpha (Homo sapiens, UniProt P19793); experiment: Antagonist activity at CMV-fused RXRalpha-LBD-GAL4-DBD (unknown origin) expressed in HEK293T cells assessed as inhibition of bexarotene-induced receptor transactivation after 16 hrs by bright-Glo luciferase reporter gene assay; format: cell-based
T5 sequence (P19793 whole entry): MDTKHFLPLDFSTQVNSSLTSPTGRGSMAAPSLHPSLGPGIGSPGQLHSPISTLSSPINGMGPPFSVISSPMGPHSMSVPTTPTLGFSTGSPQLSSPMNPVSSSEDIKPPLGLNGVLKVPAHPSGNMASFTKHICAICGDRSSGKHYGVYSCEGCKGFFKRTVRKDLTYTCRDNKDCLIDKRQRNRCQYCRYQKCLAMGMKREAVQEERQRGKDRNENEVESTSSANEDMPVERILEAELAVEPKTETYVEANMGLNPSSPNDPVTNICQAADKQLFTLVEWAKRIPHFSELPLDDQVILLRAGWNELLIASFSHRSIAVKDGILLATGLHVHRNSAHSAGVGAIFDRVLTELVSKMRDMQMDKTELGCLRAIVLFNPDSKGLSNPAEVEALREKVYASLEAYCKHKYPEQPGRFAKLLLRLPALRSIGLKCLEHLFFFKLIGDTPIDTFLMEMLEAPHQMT

Estrogen receptor beta = Estrogen receptor beta (Homo sapiens, UniProt Q92731); experiment: Antagonist activity at CMV-fused ERbeta-LBD-GAL4-DBD (unknown origin) expressed in HEK293T cells assessed as inhibition of estradiol-induced receptor transactivation after 16 hrs by bright-Glo luciferase reporter gene assay; format: cell-based
Chain of Estrogen receptor beta (Q92731 whole entry, the tested form may be a part): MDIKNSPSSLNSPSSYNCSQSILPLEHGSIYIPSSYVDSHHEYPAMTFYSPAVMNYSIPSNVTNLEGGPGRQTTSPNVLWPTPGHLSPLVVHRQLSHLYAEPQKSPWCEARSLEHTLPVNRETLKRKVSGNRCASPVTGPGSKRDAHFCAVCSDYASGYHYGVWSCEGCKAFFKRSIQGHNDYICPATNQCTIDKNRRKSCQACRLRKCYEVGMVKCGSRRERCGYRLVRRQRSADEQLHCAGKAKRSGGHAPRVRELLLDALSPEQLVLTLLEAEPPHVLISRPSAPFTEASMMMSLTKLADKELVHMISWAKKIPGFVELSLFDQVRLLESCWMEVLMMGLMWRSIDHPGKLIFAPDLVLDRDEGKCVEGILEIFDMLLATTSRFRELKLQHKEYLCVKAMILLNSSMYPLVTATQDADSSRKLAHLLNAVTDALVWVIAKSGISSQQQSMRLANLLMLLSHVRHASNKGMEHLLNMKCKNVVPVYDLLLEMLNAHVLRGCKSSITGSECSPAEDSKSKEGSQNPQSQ

## COC(=O)c1ccc(OCc2oc(-c3cccc(OC)c3)nc2C)cc1
[1]
  IC50: 8.8 µM
Vitamin D3 receptor
  IC50: Not Active
[2]
  EC50: Not Active
[3]
  IC50: 10.9 µM
Estrogen receptor
  IC50: 4.7 µM
[4]
  IC50: 4.6 µM
Estrogen receptor beta
  IC50: 5.9 µM

## COC(=O)Cc1ccc(OCc2oc(-c3ccccc3OC)nc2C)cc1
[1]
  IC50: 7.6 µM
Vitamin D3 receptor
  IC50: Not Active
[2]
  EC50: Not Active
[3]
  IC50: 6.6 µM
Estrogen receptor
  IC50: 4.1 µM
[4]
  IC50: 4.4 µM
Estrogen receptor beta
  IC50: 10 µM

## COC(=O)c1cccc(OCc2oc(-c3ccccc3OC)nc2C)c1
[1]
  IC50: 9.8 µM
Vitamin D3 receptor
  IC50: Not Active
[2]
  EC50: Not Active
[3]
  IC50: 10.9 µM
Estrogen receptor
  IC50: 5.2 µM
[4]
  IC50: 11.1 µM
Estrogen receptor beta
  IC50: 23.6 µM

## COC(=O)Cc1ccc(OCc2oc(-c3cccc(OC)c3)nc2C)cc1
[1]
  IC50: 0.97 µM
Vitamin D3 receptor
  IC50: Not Active
[2]
  EC50: Not Active
[3]
  IC50: 11.3 µM
Estrogen receptor
  IC50: 1.7 µM
[4]
  IC50: 2 µM
Estrogen receptor beta
  IC50: 7.4 µM
